Experiments:
[1] = test system: Human nasal epithelial primary cells (HNEpC); assay: Levels of compound 5 and compound 3 in media of human nasal epithelial primary cells, LC-MS/MS; format: in vitro ADME; details: HNEpC treated with 5 μM or 1 μM compound 5
Experimental: Human nasal epithelial primary cells (HNEpC) (PromoCell GmbH, Heidelberg, Germany) were cultured according to the manufacturer in provided Primary Cell media in 24 well plates at a density of 25,000 cells per well. Cells were treated with 5 μM or 1 μM of compound 5 or vehicle only (water) in media containing 20 ng/mL IL-13 for 24 hours in a 37° C. cell culture incubator. The following day, media was replaced and fresh media containing 20 ng/mL IL-13 and compound 5 or vehicle was added to each well, then incubated again for 24 hours in a 37° C. cell culture incubator. The process was repeated once more for a 24-hour period.
To determine levels of arachidonic acid and linoleic acid metabolites after compound treatment, cell media was replaced with fresh Primary Cell media without IL-13. ALOX15 substrate (arachidonic acid or linoleic acid) was added to each well at a concentration of 1.5 μM and cells further incubated 37° C. for 1 hour. Media was collected from each well and quenched with an equal volume of LC/MS extraction buffer (methanol, 60 mM ascorbic acid, 0.1% acetic acid).
From the quenched media samples, compound 5 and compound 3 were also quantified. Compound 3 was quantified using LC-MS/MS (QTrap5500, Applied Biosystems). […] Compound 5 was quantified using LC-MS/MS (QTrap5500, Applied Biosystems). […]

ALOX15 mRNA = ALOX15 mRNA by RT-qPCR in rabbit nasal mucosa; format: in vivo; details: rostral and caudal regions; rabbits, compound 5 10 mM intranasal
Experimental: Six (6) female NZW rabbits were employed in this study. Rabbits were obtained from Covance (Denver Pa.). Rabbits were between approximately 10 and 12 months of age at the time of study start. At time point 0, all animals received 50 μL of solution containing rabbit IL4 (RND Systems/Biotechne) and human IL13 (PreproTech) at a concentration of 0.25 mg/mL each in 0.5×PBS containing 12.5 mg/mL BSA per nostril. This was administered intranasally via a venous catheter attached to a micropipette. The animal was positioned in a supine manner and the venous catheter inserted into the nostril. The volume was introduced into the nasal cavity and the same procedure was repeated with the other nostril. […]
Relative ALOX15 and POSTN mRNA levels in nasal mucosa were measured by RT-qPCR. […] The level of ALOX15 or POSTN mRNA from each sample was measured in triplicate by real-time qPCR on an Applied Biosystems 7500 Fast Real-Time PCR machine using the TaqMan Gene Expression Assay for rabbit ALOX15 (ThermoFisher, assay #Oc03823548_s1). The level of GAPDH mRNA was measured in biplex reactions using TaqMan Gene Expression Assay (ThermoFisher, assay #Oc03823402_g1) and used to determine relative ALOX15 mRNA levels in each well using the delta-delta Ct method. […] Relative POSTN mRNA levels were measured as above using TaqMan Gene Expression Assay specific for rabbit POSTN mRNA (ThermoFisher, assay #Oc06804808_s1). […]

## O=C(Nc1ccc(F)cc1Cl)c1nn(COP(=O)(O)O)c(Cl)c1Cl [compound 5, (4,5-dichloro-3-((2-chloro-4-fluorophenyl)carbamoyl)-1H-pyrazol-1-yl)methyl dihydrogen phosphate]
[1]
  conversion of compound 5 to compound 3 in quenched media samples (FIG. 6): majority of compound 5 was converted to compound 3
ALOX15 mRNA
  relative level of ALOX15 mRNA in nasal mucosa versus vehicle (FIG. 11): lower

— US11116778B2, “Prodrugs of ALOX-15 inhibitors and methods of using the same” (EMPIRICO INC., priority 2019, dated 2021)
